Experimental findings from patent US8188078B2 (Sanofi-Aventis, priority 2007, dated 2012) are described below.

Series [1] deals with RON (Homo sapiens, UniProt Q04912). The experiment in a line: Test B: HTRF RON test in 96-well format. Type of series: biochemical. Put shortly:
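RON 5 nM pre-incubated 30 min at RT with compound (0.17 nM–10 μM final, 3% DMSO) in MOPS 10 mM pH 7, DTT, Tween 20. Reaction with biotinylated poly-(GAT) 1 μg/ml, ATP 10 μM, MgCl2 5 mM, 30 min RT. Eu-anti-pTyr/streptavidin-XL665 HTRF, 665/620 ratio gives % inhibition, IC50.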
(TR-FRET usually uses a lanthanide donor and a delayed reading to cut background.)

In series [2] the test system is MKN45 cells. The experiment in a line: Test D: cellular proliferation by 14C-thymidine pulse, MKN45 cells. It counts as cell-based. Particulars: cell line not stated (HCT116 or MKN45). In a few lines:
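MKN45 cells (7500/well, RPMI + 10% foetal calf serum) treated with 10 concentrations, 10000 to 0.3 nM in 3-fold steps, duplicate. 14C-thymidine (0.1 μCi/well) added at 72 h; incorporation counted after 24 h pulse, 96 h total treatment.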

Series [3] has as its target T1, MET (Homo sapiens, UniProt P08581).
T1 construct: endogenous in cells; host or cells: MKN45 cells
Kind of series: Test C: inhibition of the autophosphorylation of MET, ELISA technique (pppY1230, 1234, 1235), MKN45 cells. Type of series: cell-based. Put shortly:
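MKN45 cells adhered 24 h, then treated 1 h with compound at 6 concentrations in duplicate, final range 10000 to 30 nM. Lysates assayed by phospho-MET (pY1230/1234/1235) sandwich ELISA with HRP chromogen read at 450 nm.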

[4] abbreviates: Homo sapiens, MKN-45, cellular proliferation by 14C-thymidine pulse.

T1 sequence (P08581 25-1390): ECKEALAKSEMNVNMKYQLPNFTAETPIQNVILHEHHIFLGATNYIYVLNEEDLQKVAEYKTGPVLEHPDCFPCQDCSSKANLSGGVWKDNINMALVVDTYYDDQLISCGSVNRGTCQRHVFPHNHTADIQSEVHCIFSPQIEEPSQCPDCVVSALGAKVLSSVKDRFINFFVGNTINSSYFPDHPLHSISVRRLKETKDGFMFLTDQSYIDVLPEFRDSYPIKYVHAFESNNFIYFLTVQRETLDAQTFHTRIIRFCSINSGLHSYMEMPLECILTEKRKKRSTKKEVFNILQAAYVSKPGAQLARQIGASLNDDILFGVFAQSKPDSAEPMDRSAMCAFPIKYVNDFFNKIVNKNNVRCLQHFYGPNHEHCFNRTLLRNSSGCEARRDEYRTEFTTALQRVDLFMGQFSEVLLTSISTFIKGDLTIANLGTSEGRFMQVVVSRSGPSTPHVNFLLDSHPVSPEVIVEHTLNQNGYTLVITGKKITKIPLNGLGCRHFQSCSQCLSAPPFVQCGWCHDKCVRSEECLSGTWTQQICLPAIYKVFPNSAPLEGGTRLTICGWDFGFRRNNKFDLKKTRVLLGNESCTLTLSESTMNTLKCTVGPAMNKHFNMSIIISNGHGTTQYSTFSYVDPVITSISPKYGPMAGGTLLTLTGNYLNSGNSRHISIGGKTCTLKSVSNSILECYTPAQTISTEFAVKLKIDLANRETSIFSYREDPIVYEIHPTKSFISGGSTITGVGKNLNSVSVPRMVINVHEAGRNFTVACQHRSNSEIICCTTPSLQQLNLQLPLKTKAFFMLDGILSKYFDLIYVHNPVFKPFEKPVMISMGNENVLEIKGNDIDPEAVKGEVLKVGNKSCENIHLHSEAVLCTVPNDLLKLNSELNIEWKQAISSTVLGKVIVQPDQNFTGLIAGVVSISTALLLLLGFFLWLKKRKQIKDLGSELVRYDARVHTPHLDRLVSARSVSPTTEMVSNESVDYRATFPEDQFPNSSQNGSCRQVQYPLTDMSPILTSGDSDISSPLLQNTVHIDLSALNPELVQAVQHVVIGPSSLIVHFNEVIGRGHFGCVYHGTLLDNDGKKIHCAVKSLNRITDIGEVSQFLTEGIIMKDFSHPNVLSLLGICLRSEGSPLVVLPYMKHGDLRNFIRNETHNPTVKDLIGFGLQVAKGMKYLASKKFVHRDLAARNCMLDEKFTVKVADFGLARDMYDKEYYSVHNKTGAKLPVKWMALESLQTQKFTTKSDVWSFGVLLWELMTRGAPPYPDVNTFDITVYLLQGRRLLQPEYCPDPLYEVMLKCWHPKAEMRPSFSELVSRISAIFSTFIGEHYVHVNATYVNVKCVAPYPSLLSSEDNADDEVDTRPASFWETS
Chain of RON (Q04912 25-1400): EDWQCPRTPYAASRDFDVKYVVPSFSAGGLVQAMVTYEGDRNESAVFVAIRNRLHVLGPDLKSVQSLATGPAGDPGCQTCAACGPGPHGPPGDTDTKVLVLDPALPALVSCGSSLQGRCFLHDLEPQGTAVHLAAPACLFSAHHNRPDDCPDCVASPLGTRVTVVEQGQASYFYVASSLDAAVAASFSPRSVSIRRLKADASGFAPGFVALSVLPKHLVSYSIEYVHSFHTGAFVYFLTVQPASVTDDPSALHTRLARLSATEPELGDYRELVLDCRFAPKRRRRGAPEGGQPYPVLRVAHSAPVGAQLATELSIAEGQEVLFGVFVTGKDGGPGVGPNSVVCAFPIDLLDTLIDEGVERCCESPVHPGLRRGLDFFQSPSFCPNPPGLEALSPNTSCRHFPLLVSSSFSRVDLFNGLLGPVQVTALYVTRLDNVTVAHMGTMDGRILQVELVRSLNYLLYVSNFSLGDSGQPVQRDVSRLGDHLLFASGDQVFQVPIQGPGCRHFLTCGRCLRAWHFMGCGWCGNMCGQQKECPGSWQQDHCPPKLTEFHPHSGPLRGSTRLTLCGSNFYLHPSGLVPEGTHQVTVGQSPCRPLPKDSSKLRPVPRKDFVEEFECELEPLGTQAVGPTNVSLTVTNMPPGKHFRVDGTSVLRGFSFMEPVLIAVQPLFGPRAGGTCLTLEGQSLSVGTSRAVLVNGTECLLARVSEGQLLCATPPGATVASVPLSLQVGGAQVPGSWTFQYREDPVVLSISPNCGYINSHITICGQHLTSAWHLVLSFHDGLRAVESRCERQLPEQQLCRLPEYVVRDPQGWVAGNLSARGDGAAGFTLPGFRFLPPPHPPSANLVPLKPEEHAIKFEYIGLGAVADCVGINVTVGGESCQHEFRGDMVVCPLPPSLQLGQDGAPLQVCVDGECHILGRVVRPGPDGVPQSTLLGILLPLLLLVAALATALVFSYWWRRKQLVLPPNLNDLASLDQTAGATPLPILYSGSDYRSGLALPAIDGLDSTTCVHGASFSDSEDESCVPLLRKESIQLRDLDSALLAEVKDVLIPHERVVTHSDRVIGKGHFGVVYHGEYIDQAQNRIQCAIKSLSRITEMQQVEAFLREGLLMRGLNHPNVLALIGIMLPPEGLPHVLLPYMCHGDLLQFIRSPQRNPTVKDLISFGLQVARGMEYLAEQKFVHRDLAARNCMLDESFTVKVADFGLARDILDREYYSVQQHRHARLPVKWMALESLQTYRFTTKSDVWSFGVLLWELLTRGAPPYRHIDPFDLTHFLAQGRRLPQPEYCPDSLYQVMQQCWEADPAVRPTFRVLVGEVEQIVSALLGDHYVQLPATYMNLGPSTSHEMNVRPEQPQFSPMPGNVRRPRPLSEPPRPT

In the case of `CC(Oc1cc2sc(NC(=O)NCCN)nc2cc1F)c1c(Cl)ccc(F)c1Cl` (single isomer, unassigned) [Example 89, 1-(2-aminoethyl)-3-{6-[(1R*)-1-(2,6-dichloro-3-fluorophenyl)ethoxy]-5-fluoro-1,3-benzothiazol-2-yl}urea], the concentration for half-maximal inhibition (IC50) in series [1] is 0.5 to 10 µM; in series [2] (setting [4]), 0.5 to 10 µM; in series [3], under 0.5 µM.

As to `CC(Oc1cc2sc(NC(=O)NCCN3CCN(C)CC3)nc2cc1F)c1c(Cl)ccc(F)c1Cl` (stereo not shown) [Example 75, 1-{6-[1-(2,6-dichloro-3-fluorophenyl)ethoxy]-5-fluoro-1,3-benzothiazol-2-yl}-3-[2-(4-methylpiperazin-1-yl)ethyl]urea], the melting point fell in the range of 131 to 134 °C. Moreover, the IC50 in series [1] was under 0.5 µM. For the same compound, the IC50 in series [2] (setting [4]) is under 0.5 µM. For the same compound, the IC50 in series [3] is under 0.5 µM.

`CC(Oc1cc2sc(NC(=O)NCCN)nc2cc1F)c1c(Cl)ccc(F)c1Cl` (stereo not shown) [Example 88, 1-(2-aminoethyl)-3-{6-[1-(2,6-dichloro-3-fluorophenyl)ethoxy]-5-fluoro-1,3-benzothiazol-2-yl}urea]: the melting point was 178 °C. Moreover, the IC50 in series [1] was 0.5 to 10 µM. The half-inhibitory concentration (IC50) in series [2] (setting [4]) is 0.5 to 10 µM. The IC50 in series [3] was under 0.5 µM.

In turn, `O=C(Nc1nc2ccc(OCc3c(Cl)cccc3Cl)cc2[nH]1)C1CC1` [Example 7, N-{6-[(2,6-dichlorobenzyl)oxy]-1H-benzimidazol-2-yl}cyclopropane carboxamide] returned a melting point of 133 to 135 °C. The half-inhibitory concentration (IC50) in series [1] fell in the range of 0.5 to 10 µM. Besides, the IC50 in series [2] (setting [4]) was under 0.5 µM. Also, in series [3], the half-inhibitory concentration (IC50) was 0.5 to 10 µM.

As to `CC(Oc1cc2sc(NC(=O)NCCN3CCN(C)CC3)nc2cc1F)c1c(Cl)ccc(F)c1Cl` (single isomer, unassigned) [Example 76, 1-{6-[(1R*)-1-(2,6-dichloro-3-fluorophenyl)ethoxy]-5-fluoro-1,3-benzothiazol-2-yl}-3-[2-(4-methylpiperazin-1-yl)ethyl]urea], the 50% inhibitory concentration (IC50) in series [1], in series [2] (setting [4]) and in series [3] was under 0.5 µM in each case.

In turn, `CNCCNC(=O)Nc1nc2cc(F)c(OC(C)c3c(Cl)ccc(F)c3Cl)cc2s1` (stereo not shown) [Example 96, 1-{6-[1-(2,6-dichloro-3-fluorophenyl)ethoxy]-5-fluoro-1,3-benzothiazol-2-yl}-3-[2-(methylamino)ethyl]urea] returned a melting point of 173 to 188 °C. The same compound had an IC50 in series [1] of under 0.5 µM. This compound showed an IC50 in series [2] (setting [4]) of 0.5 to 10 µM. Besides, the IC50 in series [3] was under 0.5 µM.

The compound `CC(Oc1cc2sc(NC(=O)NCCN3CCCC3)nc2cc1F)c1c(Cl)ccc(F)c1Cl` (stereo not shown) [Example 84, 1-{6-[1-(2,6-dichloro-3-fluorophenyl)ethoxy]-5-fluoro-1,3-benzothiazol-2-yl}-3-[2-(pyrrolidin-1-yl)ethyl]urea] yielded a melting point of 178 to 190 °C. The IC50 in series [1] lay in the range of 0.5 to 10 µM. The IC50 in series [2] (setting [4]) is under 0.5 µM. Besides, in series [3], the half-inhibitory concentration (IC50) is under 0.5 µM.

`CC(Oc1cc2sc(NC(=O)NCCOCc3ccccc3)nc2cc1F)c1c(Cl)ccc(F)c1Cl` (stereo not shown) [Example 97, 1-[2-(benzyloxy)ethyl]-3-{6-[1-(2,6-dichloro-3-fluorophenyl)ethoxy]-5-fluoro-1,3-benzothiazol-2-yl}urea] had a melting point of 170 °C. In series [1], this compound displayed a concentration for half-maximal inhibition (IC50) of 0.5 to 10 µM. Also, in series [2] (setting [4]), the IC50 is 0.5 to 10 µM. In series [3], the IC50 lay within 0.5 to 10 µM.

Consider `CCN(CC)CCCNC(=O)Nc1nc2ccc(OC(C)c3c(Cl)ccc(F)c3Cl)cc2s1` (stereo not shown) [Example 83, 1-{6-[1-(2,6-dichloro-3-fluorophenyl)ethoxy]-1,3-benzothiazol-2-yl}-3-[3-(diethylamino)propyl]urea], for which the half-inhibitory concentration (IC50) in series [1] is 0.5 to 10 µM; in series [2] (setting [4]), 0.5 to 10 µM; in series [3], under 0.5 µM.

In the case of `CC(Oc1cc2sc(NC(=O)NCCN3CCCC3)nc2cc1F)c1c(Cl)ccc(F)c1Cl` (single isomer, unassigned) [Example 85, 1-{6-[(1R*)-1-(2,6-dichloro-3-fluorophenyl)ethoxy]-5-fluoro-1,3-benzothiazol-2-yl}-3-[2-(pyrrolidin-1-yl)ethyl]urea], the concentration for half-maximal inhibition (IC50) in series [1], in series [2] (setting [4]) and in series [3] was under 0.5 µM in each case.

With `CC(Oc1cc2sc(NC(=O)NCCCN3CCCC3=O)nc2cc1F)c1c(Cl)ccc(F)c1Cl` (stereo not shown) [Example 78, 1-{6-[1-(2,6-dichloro-3-fluorophenyl)ethoxy]-5-fluoro-1,3-benzothiazol-2-yl}-3-[3-(2-oxopyrrolidin-1-yl)propyl]urea], the melting point is 191 to 195 °C. The same compound returned a half-maximal inhibitory concentration (IC50) in series [1] of under 0.5 µM. In series [2] (setting [4]), this compound yielded an IC50 of 0.5 to 10 µM. This compound also gave an IC50 in series [3] of under 0.5 µM.

Take `CC(Oc1cc2[nH]c(NC(=O)NCCN3CCOCC3)nc2cc1F)c1c(Cl)ccc(F)c1Cl` (stereo not shown) [Example 6, 1-{6-[1-(2,6-dichloro-3-fluorophenyl)ethoxy]-5-fluoro-1H-benzimidazol-2-yl}-3-(2-morpholin-4-ylethyl)urea]: the melting point lay in the range of 190 to 192 °C. Moreover, in series [1], the IC50 is under 0.5 µM. In series [2] (setting [4]), this compound came in with a concentration for half-maximal inhibition (IC50) of 0.5 to 10 µM. In addition, the IC50 in series [3] is under 0.5 µM.

With `CC(Oc1cc2sc(NC(=O)NCCN(C)Cc3ccccc3)nc2cc1F)c1c(Cl)ccc(F)c1Cl` (stereo not shown) [Example 94, 1-{2-[benzyl(methyl)amino]ethyl}-3-{6-[1-(2,6-dichloro-3-fluorophenyl)ethoxy]-5-fluoro-1,3-benzothiazol-2-yl}urea], the melting point lay within 142 to 146 °C. The compound also yielded a concentration for half-maximal inhibition (IC50) in series [1] of 0.5 to 10 µM. In addition, the half-maximal inhibitory concentration (IC50) in series [2] (setting [4]) is 0.5 to 10 µM. The compound also displayed an IC50 in series [3] of 0.5 to 10 µM.

The compound `COCCNC(=O)Nc1nc2cc(F)c(OC(C)c3c(Cl)ccc(F)c3Cl)cc2s1` (stereo not shown) [Example 81, 1-{6-[1-(2,6-dichloro-3-fluorophenyl)ethoxy]-5-fluoro-1,3-benzothiazol-2-yl}-3-(2-methoxyethyl)urea] displayed a melting point of 176 to 179 °C. This compound also had an IC50 in series [1] of under 0.5 µM. In series [2] (setting [4]), the IC50 fell in the range of 0.5 to 10 µM. In series [3], this compound gave a half-maximal inhibitory concentration (IC50) of under 0.5 µM.

Compound `CCN(CC)CCNC(=O)Nc1nc2ccc(OC(C)c3c(Cl)ccc(F)c3Cl)cc2s1` (stereo not shown) [Example 82, 1-{6-[1-(2,6-dichloro-3-fluorophenyl)ethoxy]-1,3-benzothiazol-2-yl}-3-[2-(diethylamino)ethyl]urea] showed a melting point of 74 to 83 °C. The IC50 in series [1] lay in the range of 0.5 to 10 µM. In series [2] (setting [4]), this compound came in with an IC50 of 0.5 to 10 µM. In series [3], this compound returned an IC50 of under 0.5 µM.

`CC(Oc1cc2sc(NC(=O)NCCO)nc2cc1F)c1c(Cl)ccc(F)c1Cl` (stereo not shown) [Example 98, 1-{6-[1-(2,6-dichloro-3-fluorophenyl)ethoxy]-5-fluoro-1,3-benzothiazol-2-yl}-3-(2-hydroxyethyl)urea] displayed a melting point of 198 °C. The half-maximal inhibitory concentration (IC50) in series [1] is under 0.5 µM. The IC50 in series [2] (setting [4]) was in the range of 0.5 to 10 µM. The 50% inhibitory concentration (IC50) in series [3] is under 0.5 µM.

For the compound `CC(Oc1cc2sc(NC(=O)NCCN(C)C(=O)OC(C)(C)C)nc2cc1F)c1c(Cl)ccc(F)c1Cl` (stereo not shown) [Example 95], the IC50 in series [1], in series [2] (setting [4]) and in series [3] was 0.5 to 10 µM each time.

Take `CC(Oc1cc2sc(NC(=O)NCCN3CCN(C)CC3)nc2cc1F)c1c(Cl)ccc(F)c1Cl` (single isomer, unassigned) [Example 77, 1-{6-[(1S*)-1-(2,6-dichloro-3-fluorophenyl)ethoxy]-5-fluoro-1,3-benzothiazol-2-yl}-3-[2-(4-methylpiperazin-1-yl)ethyl]urea]: the 50% inhibitory concentration (IC50) in series [1], in series [2] (cellular proliferation by 14C-thymidine pulse) and in series [3] was 0.5 to 10 µM in each case.

With `CC(Oc1cc2sc(NC(=O)NCCC3CCCN3C)nc2cc1F)c1c(Cl)ccc(F)c1Cl` (stereo not shown) [Example 79, 1-{6-[1-(2,6-dichloro-3-fluorophenyl)ethoxy]-5-fluoro-1,3-benzothiazol-2-yl}-3-[2-(1-methylpyrrolidin-2-yl)ethyl]urea], the melting point was in the range of 78 to 89 °C. In series [1], this compound returned a 50% inhibitory concentration (IC50) of under 0.5 µM. For the same compound, the IC50 in series [2] (setting [4]) fell in the range of 0.5 to 10 µM. In series [3], this compound returned a 50% inhibitory concentration (IC50) of under 0.5 µM.

The IC50 is the concentration at which inhibition is half-maximal. The low end stands for higher potency, the high end for lower potency. What is called melting point is the temperature, or range, at which the solid turns liquid.
